Target: Phosphatidylinositol 3-kinase catalytic subunit type 3 (Homo sapiens, UniProt Q8NEB9)
Assay: Biochemical Assay for VPS34
Method: Activity of VPS34 kinase was determined using an ADP-Glo kinase activity assay (Promega Corp). Assays were conducted in 384-well plates (5 μL assay volume) using 25 nM VPS34 (ThermoFisher Scientific), […] PI:3PS Lipid Kinase Substrate (Promega Corp.), and 1 mM ATP in kinase buffer. Inhibition of VPS34 was measured by adding serial diluted test compound (final assay concentration of 0.1% DMSO) followed by a 1-hour incubation at 37° C. ADP-Glo reagent was then added […] followed by a 40 min incubation at rt. Kinase detection reagent was then added […] and followed by a 60 min incubation at rt. Luminescence was then detected. The RLU at each compound concentration of was converted to percent inhibition using controls (i.e., reaction with no test compound and reaction with a known inhibitor) and IC50 values were calculated by fitting a four-parameter sigmoidal curve to the data using GeneData Screener software.

Chain of Phosphatidylinositol 3-kinase catalytic subunit type 3 (Q8NEB9 whole entry): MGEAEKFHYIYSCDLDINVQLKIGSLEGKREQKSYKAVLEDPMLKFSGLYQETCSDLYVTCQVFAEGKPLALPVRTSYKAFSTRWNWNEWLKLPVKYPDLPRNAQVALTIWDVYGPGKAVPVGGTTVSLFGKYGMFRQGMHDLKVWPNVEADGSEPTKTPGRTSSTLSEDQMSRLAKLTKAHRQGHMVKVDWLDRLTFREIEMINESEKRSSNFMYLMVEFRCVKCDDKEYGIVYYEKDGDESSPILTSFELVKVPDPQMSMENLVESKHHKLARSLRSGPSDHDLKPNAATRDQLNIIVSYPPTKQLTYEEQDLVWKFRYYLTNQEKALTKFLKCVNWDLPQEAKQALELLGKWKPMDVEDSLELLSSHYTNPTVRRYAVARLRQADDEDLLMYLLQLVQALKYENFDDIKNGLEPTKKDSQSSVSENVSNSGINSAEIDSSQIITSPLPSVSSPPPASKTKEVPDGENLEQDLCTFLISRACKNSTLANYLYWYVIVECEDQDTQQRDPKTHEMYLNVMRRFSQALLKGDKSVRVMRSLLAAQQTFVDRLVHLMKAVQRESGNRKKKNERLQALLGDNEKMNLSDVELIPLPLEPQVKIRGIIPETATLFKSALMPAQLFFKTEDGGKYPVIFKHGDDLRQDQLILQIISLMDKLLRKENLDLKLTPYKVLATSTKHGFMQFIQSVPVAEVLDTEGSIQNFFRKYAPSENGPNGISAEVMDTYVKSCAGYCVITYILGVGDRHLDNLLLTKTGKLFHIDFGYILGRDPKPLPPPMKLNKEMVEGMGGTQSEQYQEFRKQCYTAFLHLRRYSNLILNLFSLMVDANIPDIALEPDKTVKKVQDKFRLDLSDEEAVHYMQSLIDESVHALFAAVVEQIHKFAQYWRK

In the case of COC(=O)Nc1cc(-c2cc(-c3cnccc3C(F)(F)F)[nH]c(=O)c2)c(C)cn1 [US20250236609, Example 4], the IC50 is reported as less than 100 nM.

From BindingDB's records for patent US20250236609 (Deciphera Pharmaceuticals, 2025)
